How the values were obtained:
breast cancer = conditions: Cancer Research, Vol. 42, Suppl. 8:3261s (1982); cited from earlier work
estrogen synthesis = assay: Estrogen synthesis inhibition in rats (uterine weight and ovarian steroid concentrations); assay type: in vivo, Wistar rats; conditions: seven days
Procedure: By virtue of their ability to inhibit the enzyme aromatase, the compounds of this invention are able to inhibit the synthesis of estrogens in mammals, thereby making the compounds useful in the treatment of estrogen-dependent diseases, such as breast cancer.
Immature female Wistar rats (44-55 grams) were divided into control and test groups of 5-8 animals each. Test compounds were administered for seven days as a component of the diet. Control animals received diet without the test compound. Beginning on the fourth day of the test, all animals treated with the test compound and one half of the control animals were given a subcutaneous injection of 1.0 mg of testosterone propionate in corn oil. The remaining control animals received only an equivalent volume of corn oil. On the seventh day of the test, rats treated with testosterone propionate were injected subcutaneously with 100 μCi of [^3 H]-testosterone in 50 μl of 3:1 (v/v) saline-ethanol.
After two hours, the animals were killed by decapitation. Uteri were isolated, trimmed of extraneous connective tissue, and weighed. […] In the control animals treated with testosterone propionate, estrogens produced by aromatization stimulated the uterus resulting in an increase in weight. […] Ovaries from rats treated with [^3 H]-testosterone were excised, cleaned of extraneous tissue, and homogenized in 2.5 ml of a 1.0 mM potassium phosphate buffer containing 3.0 mM MgCl2.6H2 O, 320 mM sucrose, and 0.25% Triton X-100 (polyethylene glycol p-isooctyl phenyl ether, Rohm and Haas) at pH 6.5. The ovarian steroids were extracted with 1.5 ml of 9:1 (v/v) toluene/ethanol to which had been added 25 to 100 mcg each of unlabelled estradiol, estriol, and estrone, and approximately 1000 dpm of [^14 C]-estradiol. The samples were vortexed, centrifuged at 500×g for 10 minutes, and the organic phase was transferred to a conical vial. Two additional extractions were performed on the residue in the same way. The pooled organic extracts were evaporated for subsequent thin-layer chromatography.
Ovarian proteins were precipitated by the addition of 5.0 ml of ethanol to the remaining aqueous phase. […] Protein was determined according to the method of Bradford, Analytical Biochemistry, 72, 248 (1976). […]
The visible spots were marked and the plates were sprayed with primulin (0.001% in 4:1 v/v acetone/water) according to the method of Wright, J. Chromatography, 59, 220 (1971) which allowed for the identification of additional steroids under 365 nm UV light. […] The organic solvent was evaporated and 10.0 ml of scintillation fluid (Beckman Ready Solv-NA) was added to the vials. Samples were analyzed by liquid scintillation spectrometry. […] Steroid concentrations are expressed as femtomoles per milligram protein.

aromatase = biological target: T1, aromatase (Rattus norvegicus, UniProt P22443); assay: Aromatase inhibition in the rat ovarian microsome assay; assay type: biochemical; conditions: substrate (androstenedione) concentration 0.1 μM; rat ovarian microsomes
T1 construct: ovarian microsomes are obtained from rats treated with pregnant mares serum gonadotropin; from tissue; host or cells: ovarian microsomes from rats treated with pregnant mares serum gonadotropin
T1 sequence (P22443 1-508): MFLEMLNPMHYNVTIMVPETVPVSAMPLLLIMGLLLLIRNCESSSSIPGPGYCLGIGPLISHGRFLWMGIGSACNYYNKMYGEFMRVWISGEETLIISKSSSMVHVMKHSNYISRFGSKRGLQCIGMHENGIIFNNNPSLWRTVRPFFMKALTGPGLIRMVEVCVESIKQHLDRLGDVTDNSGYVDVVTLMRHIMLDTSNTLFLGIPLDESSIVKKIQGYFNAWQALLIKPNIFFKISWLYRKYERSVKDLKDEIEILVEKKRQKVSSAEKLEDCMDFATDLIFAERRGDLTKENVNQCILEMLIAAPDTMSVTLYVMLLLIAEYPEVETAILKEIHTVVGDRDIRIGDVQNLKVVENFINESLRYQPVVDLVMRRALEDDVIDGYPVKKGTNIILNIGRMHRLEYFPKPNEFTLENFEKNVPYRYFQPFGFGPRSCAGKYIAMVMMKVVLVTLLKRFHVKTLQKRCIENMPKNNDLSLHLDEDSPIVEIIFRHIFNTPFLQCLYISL
Procedure: In this test system, ovarian microsomes are obtained from rats treated with pregnant mares serum gonadotropin. Test compounds are added to reaction vials containing 0.1 μM 4-androstene-3,17-dione, 100,000 dpm 1,2[^3 H]-androstenedione, the microsomes and a NADPH generating system. The concentrations of the inhibitors tested ranged between 0.005 and 10 μM.

With `C[C@]12C=CC(=O)C=C1CC[C@@H]1[C@@H]2CC[C@]2(C)OC(=O)CC[C@@H]12` [testolactone] as the compound, how does the “Effect in treatment of breast cancer” value (breast cancer) read?
Its value is “beneficial effect”.

Which results are given for `OC(c1ccc(Cl)cc1)(c1ccc(Cl)cc1)c1ccns1` [Example 1, α,α-Bis(4-chlorophenyl)-5-isothiazolemethanol]?
Mean Uterine Weight (estrogen synthesis; 200 ppm in feed (approximately 20 mg/kg/day), testosterone propionate-treated immature female Wistar rats, 5 animals, ^+ p < 0.05 vs testosterone-treated control (203.4)): 110.8 mg; Mean Steroid Concentration, estriol (estrogen synthesis; ovaries, 200 ppm in feed, [3H]-testosterone, ^+ p < 0.05 vs testosterone-treated control (0.25)): 0.88 femtomoles per milligram of protein; Mean Steroid Concentration, estrone (estrogen synthesis; ovaries, 200 ppm in feed, [3H]-testosterone, testosterone-treated control 0.19): 0.44 femtomoles per milligram of protein; Mean Steroid Concentration, estradiol (estrogen synthesis; ovaries, 200 ppm in feed, [3H]-testosterone, testosterone-treated control 1.70): 1.18 femtomoles per milligram of protein

With `CCC1(c2ccc(N)cc2)CCC(=O)NC1=O` (stereo not shown) [aminoglutethimide] as the compound, how does the “Effect in treatment of breast cancer” value (breast cancer) read?
Its value is “beneficial effect”.

Which EC50 (aromatase) does the source give for `OC(c1ccccc1)(c1ccccc1)c1ccns1` [Example 2, α,α-Diphenyl-5-isothiazolemethanol] here?
Its EC50 is 4.45 µM.
